Experimental data as given in US8263044B2, “Stilbene like compounds as novel HDAC inhibitors” (Orchid Research Laboratories Limited, priority 2005, dated 2012).
Where two headings read alike, the source gives them in different places.

Columns and labels:
[1] = tested on: MDAMB231/U251; experiment: cells; conditions: 48 h, read-out: MDAMB231/U251 LC50
[2] = tested on: NCIH460, HCT116, MDAMB231/U251; experiment: Anti-cancer screen, mean GI50 over the cell lines; type: cell-based; conditions: mean over the three cell lines; no unit in table
Procedure: (§1) Experimental drugs are screened for anti-cancer activity in three cell lines for their GI50, TGI and LC50 values (using five concentrations for each compound). The cell lines are maintained in DMEM containing 10% fetal bovine serum. 96 well micro titer plates are inoculated with cells in 100 μL for 24 h at 37° C., 5% CO2, 95% air and 100% relative humidity. 5000 HCT 116 cells/well, 5000 NCIH 460 cells/well and 5000 U251 cells/well are plated. A separate plate with these cell lines is also inoculated to determine cell viability before the addition of the compounds (T0) (See Table I).
(§2) Following 24-hour incubation, experimental drugs are added to the 96 well plates. Each plate contains one of the above cell lines and the following in triplicate: five different concentrations (0.01, 0.1, 1, 10 and 100 μM) of four different compounds, appropriate dilutions of a cytotoxic standard and control (untreated) wells. Compounds are dissolved in DMSO to make 20 mM stock solutions on the day of drug addition and frozen at −20° C. Serial dilutions of these 20 mM stock solutions are made in complete growth medium such that 100 μL of these drug solutions in medium, of final concentrations equaling 0.01, 0.1, 1, 10 and 100 μM can be added to the cells in triplicate. […] (See Table I).
(§3) For T0 measurement, 24 hours after seeding the cells, 10 μL of 3-(4,5-Dimethyl-2-thiazolyl)-2,5-diphenyl-2H-tetrazolium (MTT) solution per well is added and incubation carried out for 3 hours at 37° C., 5% CO2, 95% air and 100% relative humidity, protected from light. Cells incubated with compounds for 48 hours are treated similarly except with the addition of 20 μL MTT solution per well and a subsequent incubation under the same conditions. After 3 hours of MTT incubation, well contents are aspirated carefully followed by addition of 150 μL DMSO per well. Plates are agitated to ensure solution of the formazan crystals in DMSO and absorbance read at 570 nm. (See Table I).
Percent growth is calculated for each compound's concentration relative to the control and zero measurement wells (T0; viability right before compound addition). […]

[3] = tested on: HDAC activity (Mouse Liver Extract); experiment: Histone Deacetylase (HDAC) Inhibition Assay using Boc-Lys (Ac)-AMC Substrate; type: biochemical; conditions: mouse liver enzyme; for HDAC Inhibition 1 μM: inhibitor at 1 μM; for HDAC Inhibition 1 μM / HDAC Inhibition 10 μM: in % (unit assumed); for HDAC Inhibition 10 μM: inhibitor at 10 μM
Procedure: Histone Deacetylase (HDAC) Inhibition Assay using Boc-Lys (Ac)-AMC Substrate: Inhibition of HDAC has been implicated to modulate transcription and to induce apoptosis or differentiation in cancer cells. The fluorometric assay provides a fast and fluorescence based method that eliminates radioactivity, extractions or chromatography, as used in traditional assays. The assay based on two steps. First, the HDAC fluorometric substrate, which comprises an acetylated lysine side chain, is incubated with a sample containing HDAC activity (Mouse Liver Extract). Deacetylation of the substrate sensitizes the substrate, in the second step; treatment with the Trypsin stop solution produces a fluorophore that can be easily analyzed using fluorescence plate reader.
Assay was done in 96 well black microplate and total volume of the assay is 100 ul. Mouse liver enzyme is diluted 1:6 with HDAC buffer. Enzyme cocktail made of 10 ul of diluted enzyme and 30 ul of HDAC buffer. 40 ul of enzyme cocktail dispensed into each well. 10 ul of different concentrations of inhibitor added in to each well, except enzyme control well. Preincubated the plate at 30° C. for 5 minutes. The HDAC reaction is started by adding 50 ul of HDAC substrate (Boc-Lys (Ac)-AMC Substrate) solution. Incubated the plate at 30° C. for 30 minutes. Adding 100 ul of Trypsin stop solution stops the reaction. The plate is incubated again at 30° C. for 20-30 minutes. The release of AMC is monitored by measuring the fluorescence at excitation wavelength of 365 or 360 nm and emission wavelength of 440 or 460 nm. Buffer and substrate alone kept for blank subtraction. (Dennis Wegener et al, Anal. Biochem, 321, 2003, 202-208).

[4] = tested on: HCT 116 cells; experiment: cells; conditions: for GI50: read-out: HCT116 GI50; for CC50: read-out: HCT116 LC50
Procedure: as §1, §2, §3
(§4) Percent growth is calculated for each compound's concentration relative to the control and zero measurement wells (T0; viability right before compound addition).
(§5) If a test well's O.D. value is lower than the T0 measurement for that cell line, then, % Growth=(test−zero)/zero×100

[5] = tested on: NCIH 460 cells; experiment: cells; conditions: for GI50: read-out: NCIH460 GI50; for CC50: read-out: NCIH460 LC50
Procedure: as §1, §2, §3, §4, §5

[6] = tested on: MDAMB231/U251; experiment: cells; conditions: 48 h; for GI50: read-out: MDAMB231/U251 GI50
Procedure: as §1, §2, §3, §4, §5

[7] = HCT116, MTT, 48 h, tested at 0.01-100 μM, no unit in table
[8] = NCIH460, MTT, 48 h, tested at 0.01-100 μM, no unit in table
[9] = MDAMB231/U251, MTT, tested at 0.01-100 μM, no unit in table

Compound	CC50 [1]	GI50 [2]	HDAC Inhibition 1 μM [3]	HDAC Inhibition 10 μM [3]	GI50 ([4]; Homo sapiens, HCT-116, 48 h)	CC50 ([4]; Homo sapiens, HCT-116, 48 h)	GI50 ([5]; Homo sapiens, NCI-H460, 48 h)	CC50 ([5]; Homo sapiens, NCI-H460, 48 h)	GI50 [6]	IC50 [3]	HCT116 TGI [4, 7]	GI50 [4, 7]	CC50 [4, 7]	NCIH460 TGI [5, 8]	GI50 [5, 8]	CC50 [5, 8]	MDAMB231/U251 TGI [6, 9]	GI50 [6, 9]	CC50 ([6]; read-out: MDAMB231/U251 LC50, MDAMB231/U251, MTT, tested at 0.01-100 μM, no unit in table)
COc1cc(/C=C(\C(=O)NCCCCCC(=O)Nc2ccccc2N)c2ccc(O)cc2)cc(OC)c1 [Example 4]	> 100 µM	36 µM	16.9	24	9.4 µM	80 µM	45 µM	> 100 µM	55 µM	–	–	–	–	–	–	–	–	–	–
O=C(CCCCCNC(=O)/C(=C\c1ccc(C(F)(F)F)cc1)c1ccc(F)cc1)NO [Example 47, (2Z)-3-(4-Trifluoromethylphenyl)-2-(4-fluorophenyl)-N-[6-(hydroxyamino)-6-oxohexyl]acrylamide]	> 100 µM	9.8 µM	49.92	87.19	9 µM	95 µM	13 µM	98 µM	7.5 µM	–	–	–	–	–	–	–	–	–	–
COc1ccc(/C(=C/c2cccc(Cl)c2)C(=O)NCCCCCC(=O)NO)cc1 [Example 28, (2Z)-3-(3-Chlorophenyl)-2-(4-methoxyphenyl)-N-[6-(hydroxyamino)-6-oxohexyl]acrylamide]	100 µM	6 µM	70.82	90.20	5 µM	45 µM	9 µM	82 µM	4 µM	0.44 µM	–	–	–	–	–	–	–	–	–
CSc1ccc(/C=C(\C(=O)NCCCCCC(=O)NOCc2ccccc2)c2ccc(F)cc2)cc1 [Example 51, (2Z)-3-(4-Thiomethylphenyl)-2-(4-fluorophenyl)-N-[6-(O-benzyl hydroxyamino)-6-oxohexyl]acrylamide]	–	16.5 µM	–	–	–	–	–	–	–	–	65	10 µM	84 µM	80	30 µM	> 100 µM	35	9.6 µM	86 µM
COc1cc(/C=C(\C(=O)NCCCCCC(=O)Nc2cccc(O)c2)c2ccc(F)cc2)cc(OC)c1 [Example 3]	> 100 µM	54.3 µM	−6.41	−6.45	40 µM	> 100 µM	50 µM	> 100 µM	73 µM	–	–	–	–	–	–	–	–	–	–
COc1cc(/C=C(\C(=O)NCCCCCC(=O)NO)c2ccc(F)cc2)ccc1O [Example 46, (2Z)-3-(4-Hydroxy-3-methoxyphenyl)-2-(4-fluorophenyl)-N-[6-(hydroxyamino)-6-oxohexyl]acrylamide]	> 100 µM	5 µM	60.53	70.82	7 µM	> 100 µM	5 µM	> 100 µM	3.5 µM	–	–	–	–	–	–	–	–	–	–
COc1cc(/C=C(\C(=O)NCCCCCC(=O)Nc2ccccc2O)c2ccc(F)cc2)cc(OC)c1 [Example 2]	> 100 µM	29 µM	7.73	10.46	30 µM	73 µM	27 µM	56 µM	30 µM	–	–	–	–	–	–	–	–	–	–
Cc1ncsc1/C=C(\C(=O)NCCCCCC(=O)NO)c1ccc(C(F)(F)F)cc1 [Example 26, (2Z)-3-(4-Methylthiazol-5-yl)-2-(4-trifluoromethylphenyl)-N-[6-(hydroxyamino)-6-oxohexyl]acrylamide]	85 µM	17.7 µM	39.38	76.69	9 µM	100 µM	34 µM	> 100 µM	10 µM	–	–	–	–	–	–	–	–	–	–
Cc1ncsc1/C=C(/C(=O)NCCCCCC(=O)NO)c1cccs1 [Example 8, [(2Z)-3-(4-Methyl-1,3-thiazol-5-yl)-2-(2-thienyl))-N-[6-(hydroxyamino)-6-oxohexyl]acrylamide]	96 µM	9.7 µM	77.63	99.67	8 µM	> 100 µM	15 µM	> 100 µM	6 µM	0.55 µM	–	–	–	–	–	–	–	–	–
O=C(CCCCCNC(=O)/C(=C\c1ccc(F)c(C(F)(F)F)c1)c1ccc([N+](=O)[O-])cc1)NO [Example 24, (2Z)-3-(4-Fluoro-3-trifluoromethylphenyl)-2-(4-nitrophenyl)-N-[6-(hydroxyamino)-6-oxohexyl]acrylamide]	75 µM	7.21 µM	46.1	99.5	5 µM	> 100 µM	16 µM	82 µM	0.3 µM	–	–	–	–	–	–	–	–	–	–
O=C(CCCCCNC(=O)/C(=C\c1cc(F)cc(F)c1F)c1ccc([N+](=O)[O-])cc1)NO [Example 27, (2Z)-3-(2,3,5-Trifluorophenyl)-2-(4-nitrophenyl)-N-[6-(hydroxyamino)-6-oxohexyl]acrylamide]	82 µM	14.8 µM	–	–	7 µM	> 100 µM	30 µM	96 µM	7.5 µM	–	–	–	–	–	–	–	–	–	–
Cc1cc(/C=C(\C(=O)NCCCCCC(=O)NO)c2ccc(F)cc2)ccc1F [Example 45, (2Z)-3-(4-Fluoro-3-methylphenyl)-2-(4-fluorophenyl)-N-[6-(hydroxyamino)-6-oxohexyl]acrylamide]	> 100 µM	9.3 µM	–	–	6.8 µM	73 µM	16 µM	89 µM	5 µM	–	–	–	–	–	–	–	–	–	–
O=C(CCCCCNC(=O)/C(=C\c1ccc(F)c(F)c1)c1ccc(F)cc1)Nc1nccs1 [Example 36]	> 100 µM	1.1 µM	–	–	> 100 µM	> 100 µM	2 µM	> 100 µM	0.2 µM	–	–	–	–	–	–	–	–	–	–
COc1ccc(/C=C(\C(=O)NCCCCCC(=O)NO)c2ccccc2)cc1 [Example 29, (2Z)-3-(4-Methoxyphenyl)-2-(phenyl)-N-[6-(hydroxyamino)-6-oxohexyl]acrylamide]	90 µM	13 µM	–	–	5 µM	78 µM	28 µM	89 µM	6 µM	–	–	–	–	–	–	–	–	–	–
